For one test, the target named is T1, rASIC1A channel (Rattus norvegicus, UniProt P55926).
T1 construct: cDNA isolated from rat brain codes for a protein of 526 amino acids; expressed in transfected cells; host or cells: Xenopus laevis oocytes injected with cRNA
T1 sequence (P55926 1-526): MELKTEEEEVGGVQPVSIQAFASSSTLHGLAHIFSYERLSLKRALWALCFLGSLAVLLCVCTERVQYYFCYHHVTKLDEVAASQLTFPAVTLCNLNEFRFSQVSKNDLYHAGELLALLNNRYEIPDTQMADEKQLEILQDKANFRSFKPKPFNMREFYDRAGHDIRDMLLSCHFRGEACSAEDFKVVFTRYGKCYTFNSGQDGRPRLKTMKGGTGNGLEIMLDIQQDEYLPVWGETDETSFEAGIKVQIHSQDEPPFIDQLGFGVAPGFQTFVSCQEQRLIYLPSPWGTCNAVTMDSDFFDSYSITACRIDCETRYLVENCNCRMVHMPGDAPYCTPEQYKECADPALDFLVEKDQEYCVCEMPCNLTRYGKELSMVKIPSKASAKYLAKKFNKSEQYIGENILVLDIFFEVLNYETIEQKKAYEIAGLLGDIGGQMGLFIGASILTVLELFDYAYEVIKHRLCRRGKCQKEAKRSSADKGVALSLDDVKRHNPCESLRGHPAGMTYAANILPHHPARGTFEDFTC
The experiment in a line: Proton-activated rASIC1A current in Xenopus oocytes (voltage clamp and outside-out patch). Type of test: cell-based. How it is done: 0.25 ng of cRNA was injected into the Xenopus laevis oocytes and the recording microelectrodes for the imposed voltage and for the patch-clamp were installed two days after the injection. The bath solutions for the outside-out patch recordings and the pipettes for the outside-out patch and total cells recordings contained: 140 mM KCl (or NMDG), 2 mM MgCl2, 5 mM EGTA, 10 mM Hepes, pH 7.4 (with KOH). The pipettes for the outside-out patch recordings and the bath solutions for the outside-out patch and total cells recordings contained: 140 mM NaCl (or LiCl or NMDGCl), 2 mM MgCl2, 1.8 mM CaCl2, 10 mM Hepes, pH 7.4 (adjusted with HCl, NaOH, LiOH or TMAOH). The intracellular acidification of the oocytes was implemented by injecting […] of the internal solution at pH 2 or by perfusion and withdrawal of a bath medium containing 20 mM NH4 Cl. […] The data were sampled at 2 kHz and filtered at 500 Hz for the analysis (Logiciel Biopatch).

Test [1] has as its target T2, hASIC3 (Homo sapiens, UniProt Q9UHC3).
T2 construct: expressed in transfected cells; host or cells: COS cells (DEAE-Dextran, hASIC3-PCI with CD8 marker)
T2 sequence (Q9UHC3 1-531): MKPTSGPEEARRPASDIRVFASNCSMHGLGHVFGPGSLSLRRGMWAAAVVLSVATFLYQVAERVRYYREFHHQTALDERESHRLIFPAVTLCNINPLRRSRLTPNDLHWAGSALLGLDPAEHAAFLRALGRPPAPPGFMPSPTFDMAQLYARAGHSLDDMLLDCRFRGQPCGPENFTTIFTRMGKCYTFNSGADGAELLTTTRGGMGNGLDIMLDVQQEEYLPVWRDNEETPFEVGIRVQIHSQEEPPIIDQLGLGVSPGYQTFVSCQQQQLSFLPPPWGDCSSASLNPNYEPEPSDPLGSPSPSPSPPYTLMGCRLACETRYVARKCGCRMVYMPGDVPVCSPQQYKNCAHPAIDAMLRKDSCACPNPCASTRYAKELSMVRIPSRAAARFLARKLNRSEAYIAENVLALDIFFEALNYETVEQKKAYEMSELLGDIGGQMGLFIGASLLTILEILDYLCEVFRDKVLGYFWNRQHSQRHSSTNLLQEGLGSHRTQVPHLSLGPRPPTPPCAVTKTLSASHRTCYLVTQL
The test is described as follows: H+-gated hASIC3 whole-cell current in transfected COS cells. The format is cell-based. An excerpt:
(§1) The vector containing the hASIC3 coding sequence was linearized with NotI and blunt ended with T4 DNA polymerase. After inactivation of the T4 DNA polymerase, the hASIC3 coding sequence was excised with EcoRI and subsequently subcloned into the EcoRI/SalI (blunt) digested PCI expression vector (Promega). COS cells, at a density of 20.000 cells per 35 mm diameter petri dish, were transfected with a mix of CD8 and hASIC3-PCI (1:5) using the DEAE-Dextran method. Cells were used for electrophysiological measurements one to three days after transfection. Successfully transfected cells were recognised by their ability to fix CD8-antibody-coated beads. Ion currents were recorded using either the whole cell or outside-out patch-clamp technique. The pipette solution contained (in mM): KCl 120, NaCl 30, MgCl2 2, EGTA 5, HEPES 10 (pH 7.2). The bath solution contained in mM: NaCl 140, KCl 5, MgCl2 2, CaCl2 2, HEPES 10 (pH 7.3). Changes in extracellular pH were induced by opening one out of six outlets of a microperfusion system in front of the cell or patch. Test solutions having a pH of less then 6 were buffered with 10 mM MES rather than HEPES but were identical to the control solution in all other respects. Experiments were carried out at room temperature (20-24° C.).

Test [2] deals with proton-activated cationic channels of sensory neurons. The note with it: refs [18], [19]; cited from earlier work.
The target in test [3] is T2, hASIC3. The test is described as follows: hASIC3 single channel currents in outside-out patches from transfected COS cells. The format is cell-based. The note with it: 100 μM, outside-out patch, -60 mV, resting pH 7.3.
Text: as §1

A further test concerns perception of acid taste. The note with it: ref [2]; cited from earlier work.
The mark [4] stands for this setting: H+-activated current, pH change from pH 7.4 to pH 6, -70 mV, oocytes, outside-out patch at 0 mV, read-out: Kd, reversible block of the rASIC1A channel.

“Also recorded” adds a separate entry of the source. Read-outs that look alike come from different tables or passages of the source.

Regarding `NC(=NCc1ccccc1)NC(=O)c1nc(Cl)c(N)nc1N` [benzamil], the Kd – broadly, the concentration at which binding is half-saturated – at rASIC1A channel (setting [4]) came to 10 µM.
As to `Nc1nc(N)c2nc(-c3ccccc3)c(N)nc2n1` [triamterene], at hASIC3 [1] (COS cells), the “Effect on the sustained hASIC3 current” value is “virtually not affected”. The “Effect on the transient hASIC3 current” value at hASIC3 [1] (transient current, COS cells) was “inhibited”.
Regarding `CCN(c1nc(N)c(C(=O)NC(=N)N)nc1Cl)C(C)C` [EIPA, ethylisopropylamiloride], the “Effect on the inflowing current activated by H+ in sensory neurons” value in test [2] is reported as “inhibited”. At rASIC1A channel (setting [4]), the Kd is 10 µM.
As for `N=C(N)NC(=O)c1nc(Cl)c(N)nc1N` [amiloride], at hASIC3 [3], the “Effect on spontaneous hASIC3 channel activity at pH 7.3” value is on record as “inhibited; also recorded: disappears”. The “Effect on the inflowing current activated by H+ in sensory neurons” value in test [2] was “inhibited”. Also, the IC50 on hASIC3 [1] (cells clamped at -60 mV, currents as fraction of mean current in absence of drug, read-out: K0.5, dose-response curve for inhibition of hASIC3 current) stood at 15.9 µM. The “Effect on the sustained hASIC3 current” value on hASIC3 [1] (COS cells) is listed as “virtually not affected”. Besides, the Kd on hASIC3 [1] (transient current, COS cells, read-out: KD, inhibition of the transient hASIC3 current) is 15.9 µM; on rASIC1A channel, 10 µM. Also, the “Effect on perception of acid taste” value in the test on perception of acid taste was “inhibits the perception of acid taste”.

The values are drawn from patent US6287859A, “Identification, functional expression and chromosal localization of a sustained human proton-gated cation channel” (priority 1999, dated 2001).
